Measurements published in US10653688B2, “6-(6-membered heteroaryl and aryl)isoquinolin-3-yl carboxamides and preparation and use thereof” (Samumed, LLC, priority 2017, dated 2020).
Like-named read-outs stand apart in the source and are kept apart here.

What was measured:
[1] = tested on: Wnt activity (SW480 colon carcinoma cells stably expressing the Sp5-Luc reporter gene); assay: Wnt activity screening assay (Sp5-Luc reporter gene assay); type: cell-based, human; conditions: Homo sapiens; for EC50: 36 to 48 hours; for inhibition at 10 µM: read-out: percent inhibition at 10 μM (given for EC50 >10 μM), 10 μM
Procedure, shortened: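 EC50 values come from a variable-slope four-parameter fit of luminescence normalized to DMSO-only wells. The read-out follows 36–48 h incubation at 37 °C, 5% CO2, in DMEM containing 1% fetal bovine serum. Cells are hygromycin-selected SW480 stably expressing firefly luciferase under a Wnt-responsive Sp5 promoter (eight TCF/LEF sites).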

recombinant GSK3β kinase = recombinant GSK3β kinase (Homo sapiens (Human), UniProt P49841); assay: GSK3β kinase assay (Ser/Thr 09 peptide Z-lyte, FRET); type: biochemical;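 further: FRET read-out as coumarin over fluorescein emission ratio, compounds incubated one hour at room temperature, IC50 from dose-response curve fit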
[2] = tested on: SW480 colon carcinoma cells; assay: Cell viability assay (CellTiter-Glo); type: cell-based, human; conditions: Homo sapiens; for EC50: 96 h, four days, CellTiter-Glo; for inhibition at 10 µM: read-out: percent inhibition at 10 μM (given for EC50 >10 μM), 10 μM
[3] = tested on: LL29 cells (primary human fibroblasts derived from IPF patients), α-smooth muscle actin; assay: Inhibition of fibrotic process: TGF-β1-treated primary human fibroblasts, αSMA staining; type: cell-based; conditions: Homo sapiens, Fibroblast; for EC50: 96 h, TGF-β1 20 ng/mL, 4 days, % cells positive for αSMA; for inhibition at 10 µM: read-out: percent inhibition at 10 μM (given for EC50 >10 μM), TGF-β1, αSMA, 10 μM;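 on all read-outs here: controls were TGF-β1-stimulated wells with DMSO vehicle as the positive reference and cells given DMSO alone as the negative reference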
Experimental: Representative compounds were screened using primary human fibroblasts (derived from IPF patients) treated with TGF-β1 to determine their ability to inhibit the fibrotic process.
Human Fibroblast Cell Culture:
Each compound was dissolved in DMSO as a 10 mM stock and used to prepare compound source plates. […] LL29 cells were plated at 1,500 cells/well in 70 μL/well F12 medium supplemented with 1% Fetal Bovine Serum. […] Wells treated with TGF-β1 and containing DMSO were used as positive control, and cells with only DMSO were negative control. Cells were incubated at 37° C. and 5% CO2 for 4 days. Following incubation for 4 days, SYTOX green nucleic acid stain (Life Technologies [Thermo Fisher Scientific]) was added to the wells at a final concentration of 1 μM and incubated at room temperature for 30 min. Cells were then fixed using 4% formaldehyde (Electron Microscopy Sciences), washed 3 times with PBS followed by blocking and permeabilization using 3% Bovine Serum Albumin (BSA; Sigma) and 0.3% Triton X-100 (Sigma) in PBS.

[4] = tested on: IL-6 in human peripheral blood mononuclear cells (huPBMCs); assay: IL-6 inhibition in LPS-stimulated human peripheral blood mononuclear cells (HTRF); type: cell-based; conditions: Homo sapiens, PBMC; for EC50: LPS 50 ng/mL, 22 hours, IL-6 HTRF; for inhibition at 10 µM: read-out: percent inhibition at 10 μM (given for EC50 >10 μM), LPS, IL-6, 10 μM
Procedure, shortened: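 Compound-treated huPBMCs (1×10e6 cells/mL, 1% FBS-RPMI) were stimulated after 2 h with LPS (50 ng/mL) for another 22 h at 37° C. An anti-IL-6 HTRF pair reported IL-6 as the 665/620 nm ratio; activity relative to DMSO, EC50 by 4-parameter Levenberg-Marquardt fitting, duplicates.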

[5] = molecular target: recombinant DYRK1A kinase (Homo sapiens (Human), UniProt Q13627); assay: DYRK1A kinase assay (Ser/Thr 18 peptide Z-lyte, FRET)
Experimental: Each compound was dissolved in DMSO as a 10 mM stock and used to prepare compound source plates.
This is a non-radioactive assay using fluorescence resonance energy transfer (FRET) between coumarin and fluorescein to detect kinase activity which is represented as a ratio of coumarin emission/fluorescein emission.
The mixture was allowed to incubate with the representative compounds for one hour at room temperature. All reactions were performed in duplicate. Unphosphorylated (“0% Control”) and phosphorylated (“100% control”) forms of Ser/Thr 18 served as control reactions. Additionally, an 11-point dose-response curve of Staurosporine (luM top) was run to serve as a positive compound control.
After incubation, Development Reagent A was diluted in Development Buffer then added to the reaction and allowed to further incubate for one hour at room temperature.
Dose-response curves were generated and inhibitory concentration (IC50) values were calculated using non-linear regression curve fit in the Dotmatics' Studies Software (Bishops Stortford, UK).

[6] = GSK3β kinase, head says EC50, method says IC50, ATP 46 μM
[7] = DYRK1A kinase, head says EC50, method says IC50, ATP 30 μM

recombinant GSK3β kinase, sequence (P49841 whole entry): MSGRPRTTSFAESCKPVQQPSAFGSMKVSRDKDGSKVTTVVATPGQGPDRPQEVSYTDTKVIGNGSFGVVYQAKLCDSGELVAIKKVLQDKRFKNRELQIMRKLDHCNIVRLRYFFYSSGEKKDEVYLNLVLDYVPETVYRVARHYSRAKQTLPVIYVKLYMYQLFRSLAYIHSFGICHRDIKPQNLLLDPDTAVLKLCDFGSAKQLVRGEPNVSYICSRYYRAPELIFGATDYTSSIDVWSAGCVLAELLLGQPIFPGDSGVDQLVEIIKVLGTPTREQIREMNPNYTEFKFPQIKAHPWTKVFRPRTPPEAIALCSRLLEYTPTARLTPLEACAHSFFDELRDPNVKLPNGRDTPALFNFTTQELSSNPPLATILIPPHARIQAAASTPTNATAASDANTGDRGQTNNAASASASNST

| EC50 [1] [µM] | EC50 (recombinant GSK3β kinase; [6]) [µM] | EC50 [2] [µM] | EC50 [4] [µM] | EC50 [5, 7] [µM] | EC50 (recombinant GSK3β kinase) [µM] | EC50 [5] [µM] | SMILES | EC50 [3] [µM] | inhibition at 10 µM [4] [%] | inhibition at 10 µM [3] [%] | inhibition at 10 µM [1] [%] | inhibition at 10 µM [2] [%] |
| --- | --- | --- | --- | --- | --- | --- | --- | --- | --- | --- | --- | --- |
| 0.866 | > 10 | 2.32 | > 10 | 0.006 | – | – | CNC(=O)c1cncc(-c2ccc3cnc(NC(=O)c4ccnc(N5CCN(C)CC5)c4)cc3c2)c1 [Compound 59, N-methyl-5-(3-(2-(4-methylpiperazin-1-yl)isonicotinamido)isoquinolin-6-yl)nicotinamide] | 0.705 | 4.7 | – | – | – |
| 0.247 | 0.067 | 0.283 | 0.383 | 0.001 | – | – | CN1CCC(Nc2cncc(-c3ccc4cnc(NC(=O)C5CCC5)cc4c3)n2)CC1 [Compound 113, N-(6-(6-((1-Methylpiperidin-4-yl)amino)pyrazin-2-yl)isoquinolin-3-yl) cyclobutanecarboxamide] | > 10 | – | 27.3 | – | – |
| 0.028 | 3 | 0.091 | 0.312 | 0.001 | – | – | CC(C)Nc1cncc(-c2ccc3cnc(NC(=O)c4cn(C5CCN(C(C)C)CC5)nn4)cc3c2)n1 [Compound 96, N-(6-(6-(Isopropylamino)pyrazin-2-yl)isoquinolin-3-yl)-1-(1-isopropylpiperidin-4-yl)-1H-1,2,3-triazole-4-carboxamide] | 0.152 | – | – | – | – |
| 4.41 | 7.09 | 4.25 | 1.38 | 0.003 | – | – | CN1CCC(Nc2cncc(-c3ccc4cnc(NC(=O)c5ccc(F)cc5)cc4c3)c2)CC1 [Compound 46, 4-Fluoro-N-(6-(5-((1-methylpiperidin-4-yl)amino)pyridin-3-yl)isoquinolin-3-yl)benzamide] | 0.682 | – | – | – | – |
| 0.119 | 0.003 | 0.253 | 0.146 | 0.001 | – | – | O=C(Nc1cc2cc(-c3cncc(NCC4(F)CNC4)n3)ccc2cn1)C1CC1 [Compound 103, N-(6-(6-(((3-Fluoroazetidin-3-yl)methyl)amino)pyrazin-2-yl)isoquinolin-3-yl)cyclopropanecarboxamide] | 0.547 | – | – | – | – |
| 0.266 | > 10 | 0.441 | 1.78 | 0.012 | – | – | Nc1cncc(-c2ccc3cnc(NC(=O)c4coc(C5CCNCC5)n4)cc3c2)c1 [Compound 148, N-(6-(5-Aminopyridin-3-yl)isoquinolin-3-yl)-2-(piperidin-4-yl)oxazole-4-carboxamide] | 1.19 | – | – | – | – |
| 0.024 | 2.67 | 0.046 | 0.137 | 0.002 | – | – | CC(C)Nc1cncc(-c2ccc3cnc(NC(=O)c4cn(C5CCNCC5)nn4)cc3c2)n1 [Compound 94, N-(6-(6-(isopropylamino)pyrazin-2-yl)isoquinolin-3-yl)-1-(piperidin-4-yl)-1H-1,2,3-triazole-4-carboxamide] | 0.103 | – | – | – | – |
| 0.098 | > 10 | 0.768 | 2.72 | 0.022 | – | – | CN1CCC(n2cc(C(=O)Nc3cc4cc(-c5cnc6[nH]ccc6c5)ccc4cn3)cn2)CC1 [Compound 126, N-(6-(1H-Pyrrolo[2,3-b]pyridin-5-yl)isoquinolin-3-yl)-1-(1-methylpiperidin-4-yl)-1H-pyrazole-4-carboxamide] | 1.45 | – | – | – | – |
| 1.62 | – | 3.42 | 1.13 | – | 0.017 | 0.001 | CC(C)Nc1cncc(-c2ccc3cnc(NC(=O)C4CNC4)cc3c2)n1 [Compound 86, N-(6-(6-(Isopropylamino)pyrazin-2-yl)isoquinolin-3-yl)azetidine-3-carboxamide] | 0.204 | – | – | – | – |
| > 10 | – | > 10 | > 10 | – | > 10 | 1.63 | CC(C)N1CCC(c2nc(C(=O)Nc3cc4cc(-c5cncc(F)c5)ccc4cn3)co2)CC1 [Compound 150, N-(6-(5-Fluoropyridin-3-yl)isoquinolin-3-yl)-2-(1-isopropylpiperidin-4-yl) oxazole-4-carboxamide] | > 10 | 10.7 | 42 | 15.2 | 10.9 |
| 0.438 | 0.048 | 0.474 | 0.334 | 0.001 | – | – | CN1CCC(Nc2cncc(-c3ccc4cnc(NC(=O)C5CCCC5)cc4c3)n2)CC1 [Compound 114, N-(6-(6-((1-Methylpiperidin-4-yl)amino)pyrazin-2-yl)isoquinolin-3-yl) cyclopentanecarboxamide] | 0.175 | – | – | – | – |
| 0.051 | 5.17 | 0.111 | 0.223 | 0.004 | – | – | CN1CCN(c2cc(C(=O)Nc3cc4cc(-c5cncc(NC(C)(C)C)n5)ccc4cn3)ccn2)CC1 [Compound 100, N-(6-(6-(tert-Butylamino)pyrazin-2-yl)isoquinolin-3-yl)-2-(4-methylpiperazin-1-yl)isonicotinamide] | 0.045 | – | – | – | – |
| 1.73 | > 10 | 1.25 | 9.06 | 0.038 | – | – | CN1CCN(c2cc(C(=O)Nc3cc4cc(-c5cnc6[nH]ccc6n5)ccc4cn3)ccn2)CC1 [Compound 136, N-(6-(5H-Pyrrolo[2,3-b]pyrazin-2-yl)isoquinolin-3-yl)-2-(4-methylpiperazin-1-yl)isonicotinamide] | 0.933 | – | – | – | – |
| > 10 | > 10 | > 10 | > 10 | 6.8 | – | – | CN1CCC(c2nc(C(=O)Nc3cc4cc(-c5cncc(F)c5)ccc4cn3)co2)CC1 [Compound 143, N-(6-(5-Fluoropyridin-3-yl)isoquinolin-3-yl)-2-(1-methylpiperidin-4-yl) oxazole-4-carboxamide] | 2.44 | 8.2 | – | 0.8 | 8 |
| 7.84 | > 10 | > 10 | 3.79 | 0.102 | – | – | CC(C)N1CCC(c2nc(C(=O)Nc3cc4cc(-c5cccnc5)ccc4cn3)co2)CC1 [Compound 149, 2-(1-Isopropylpiperidin-4-yl)-N-(6-(pyridin-3-yl)isoquinolin-3-yl)oxazole-4-carboxamide] | 3.4 | – | – | – | 39 |
| 0.198 | 0.058 | 0.485 | 0.358 | 0.001 | – | – | CC(C)N1CCC(Nc2cncc(-c3ccc4cnc(NC(=O)C5CC5)cc4c3)n2)CC1 [Compound 116, N-(6-(6-((1-Isopropylpiperidin-4-yl)amino)pyrazin-2-yl)isoquinolin-3-yl) cyclopropanecarboxamide] | 0.105 | – | – | – | – |
| 0.573 | > 10 | 0.636 | 1.11 | 0.004 | – | – | CC(C)Nc1cncc(-c2ccc3cnc(NC(=O)c4cccc(C5CCNCC5)c4)cc3c2)c1 [Compound 41, N-(6-(5-(Isopropylamino)pyridin-3-yl)isoquinolin-3-yl)-3-(piperidin-4-yl) benzamide] | 0.571 | – | – | – | – |
| > 10 | > 10 | 9.03 | > 10 | 0.002 | – | – | CC(C)N1CCC(Nc2cncc(-c3ccc4cnc(NC(=O)c5ccc(F)cc5)cc4c3)n2)CC1 [Compound 119, 4-Fluoro-N-(6-(6-((1-isopropylpiperidin-4-yl)amino)pyrazin-2-yl)isoquinolin-3-yl)benzamide] | > 10 | 6.1 | 7.7 | 23.7 | – |
| 0.039 | > 10 | 0.071 | 2.76 | 0.002 | – | – | CC(C)n1cc(C(=O)Nc2cc3cc(-c4cncc(NC5CCNCC5)n4)ccc3cn2)cn1 [Compound 138, 1-Isopropyl-N-(6-(6-(piperidin-4-ylamino)pyrazin-2-yl)isoquinolin-3-yl)-1H-pyrazole-4-carboxamide] | 0.078 | – | – | – | – |
| 0.71 | – | 2.71 | 3.39 | – | > 10 | 0.012 | CN1CCN(c2cc(C(=O)Nc3cc4cc(-c5ccc(N)nc5)ccc4cn3)ccn2)CC1 [Compound 39, N-(6-(6-Aminopyridin-3-yl)isoquinolin-3-yl)-2-(4-methylpiperazin-1-yl) isonicotinamide] | 2.48 | – | – | – | – |
| 0.235 | > 10 | 0.285 | 2.9 | 0.003 | – | – | CN1CCN(c2cc(C(=O)Nc3cc4cc(-c5cncc6[nH]ccc56)ccc4cn3)ccn2)CC1 [Compound 131, N-(6-(1H-Pyrrolo[2,3-c]pyridin-4-yl)isoquinolin-3-yl)-2-(4-methylpiperazin-1-yl)isonicotinamide] | 0.604 | – | – | – | – |
